Laboratory results: patent US9446146B2, “Methods and agents for improving targeting of CD138 expressing tumor cells” (BIOTEST AG, priority 2007, dated 2016)

Key:
[1] = system: MOLP-8 human multiple myeloma xenografts; experiment: Xenograft mouse experiments A Part I, MOLP-8, single iv bolus; format: in vivo, CB.17 SCID mice; conditions: for tumor growth compared with PBS-treated animals: single iv bolus 250 μg/kg (nBT062 antibody […])
Experimental: In these mice, subcutaneous tumors were established (female CB.17 SCID mice) by inoculation with MOLP-8 cell suspensions. Treatment with a single bolus intravenous injection was conducted when tumor volumes reached an average 113 mm^3. Changes in tumor volume and body weight were monitored twice per week.
Each mouse was inoculated with 1×10^7 MOLP-8 cells subcutaneously into the area under the right shoulder. The total volume was 0.2 ml per mouse, in which the ratio of serum-free medium to matrigel (BD Bioscience, Bedford, Mass.) was 1/1 (v/v). Prior to treatment, the xenograft tumors were monitored daily and were allowed to become established.
Eleven days after tumor cell inoculation, 42 mice were selected based on tumor volumes and body weights. […] The forty-two mice were randomly divided into seven groups (A-G) of six animals each based on tumor volume.
Each of six mice in Group A received 200 μl of PBS as vehicle control.
All agents were intravenously administered as a single bolus injection through a lateral tail vein with a 1 ml syringe fitted with a 27 gauge, ½ inch needle.

MOLP-8 tumor xenografts = experiment: Bulky MOLP-8 tumor model (Part II / Xenograft mouse experiments B); format: in vivo, SCID mice; conditions: 450 μg/kg dose; mean time to reach 160 mm^3 minus control
Experimental: In a second set of experiments, MOLP-8 cells (1.5×10^7 cells per mouse), suspended in a 50:50 mixture of serum free media and matrigel were injected subcutaneously in the area under the right shoulder in 100 μl. Tumor volumes reached about 80 mm^3 at day 11 and the mean of the controls was about 750 mm^3 at day 25, post cell inoculation. […] Each mouse in the control group (n=6) received 0.2 ml of sterile PBS administered into the lateral tail vein (i.v.) in a bolus injection. All treatment doses were based on conjugated maytansinoid. […] Mice were randomized into eleven groups (n=6) by tumor volume using the LabCat Program. The tumor volumes ranged from 40.0 to 152.5 mm^3. The mice were dosed based on the individual body weight.
Tumor size was measured twice per week in three dimensions using the LabCat System (Tumor Measurement and Tracking, Innovative Programming Associated, Inc., Princeton, N.J.).
In this set of experiments, eighty-five mice were inoculated with MOLP-8 cells (1.5×10^7 cells/mouse) subcutaneously in the right shoulder. […] Sixty-six SCID mice bearing bulky MOLP-8 tumors with a mean tumor volume of about 80 mm^3 were randomized into eleven treatment groups (n=6).

Molecule | tumor growth compared with PBS-treated animals [1] | homogeneity of anti-tumor activity in individual mice ([1]; single iv 250 μg/kg, FIG. 9) | TGD* (MOLP-8 tumor xenografts) [days]
COc1cc2cc(c1Cl)N(C)C(=O)C[C@H](OC(=O)[C@H](C)N(C)C(=O)CCC(C)(C)S)[C@]1(C)O[C@H]1[C@H](C)[C@@H]1C[C@@](O)(NC(=O)O1)[C@H](OC)/C=C/C=C(\C)C2 [DM4, N^2′-deacetyl-N^2′-(4-methyl-4-mercapto-1-oxopentyl)-maytansine] | did not cause any significant inhibition of tumor growth | – | –
B-B4-SPP-DM1 | marked delay in tumor growth | more heterogeneously and therefore less predicable | –
nBT062-DM1 | – | – | 18
huC242-DM4 (conjugate, chains of the INN, looked up, DM4 maytansinoid payload) VH: QVQLVQSGAEVKKPGETVKISCKASDYTFTYYGMNWVKQAPGQGLKWMGWIDTTTGEPTYAQKFQGRIAFSLETSASTAYLQIKSLKSEDTATYFCARRGPYNWYFDVWGQGTTVTVSS VL: DIVMTQSPLSVPVTPGEPVSISCRSSKSLLHSNGNTYLYWFLQRPGQSPQLLIYRMSNLVSGVPDRFSGSGSGTAFTLRISRVEAEDVGVYYCLQHLEYPFTFGPGTKLELK | did not cause any significant inhibition of tumor growth | – | –
